For 28 molecules, Ki results are on record in patent US20040248887A1, “Inhibitors of cathepsin S” (IRM LLC, priority 2003, published 2004).

Some results are limits rather than exact numbers.

Cathepsin S, sequence (P25774 115-331, species assumed): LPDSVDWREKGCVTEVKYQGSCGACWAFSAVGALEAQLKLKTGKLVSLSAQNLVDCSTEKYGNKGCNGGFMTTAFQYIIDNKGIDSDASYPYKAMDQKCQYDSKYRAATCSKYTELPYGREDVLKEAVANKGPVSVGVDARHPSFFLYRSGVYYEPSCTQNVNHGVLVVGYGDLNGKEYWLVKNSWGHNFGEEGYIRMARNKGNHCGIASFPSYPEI

The experiment addresses Cathepsin S (Homo sapiens, UniProt P25774). The experiment can be described thus: Cathepsin S inhibition, fluorogenic peptide substrate kinetic assay. Particulars: Table II; Cathepsin S inhibition constant, pH5.5; read-out: Ki Cat. S. The experiment is classed as biochemical. In outline:
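Reactions were started with 50 μM (final) acetyl-His-Pro-Val-Lys-aminocarbamoylcoumarin, and hydrolysis was followed by fluorescence (ex 380/em 450 nm). Apparent inhibition constants from enzyme progress curves were converted to Ki for competitive inhibitors using substrate concentration and Km.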
Take `COc1cccc(C(=O)NC(C(=O)N[C@@H](COCc2ccccc2)CN2CCc3cc(F)ccc32)c2ccccc2)c1` (mixture of isomers) [Compound 36, N-(S)-{[1-(R)-Benzyloxymethyl-2-(5-fluoro-2,3-dihydro-indol-1-yl)-ethylcarbamoyl]-phenyl-methyl}-3-methoxy-benzamide]: the inhibition constant (Ki) was less than 100 nM.

`C[C@@H](CNc1ccc(OC(F)(F)F)cc1)NC(=O)[C@H](CC1CCCCC1)NC(=O)c1nc(-c2ccc(F)cc2)no1` [Compound 109, 3-(4-Fluoro-phenyl)-[1,2,4]oxadiazole-5-carboxylic acid {2-cyclohexyl-1-(S)-[1-(S)-methyl-2-(4-trifluoromethoxy-phenylamino)-ethylcarbamoyl]-ethyl}-amide]: the Ki was less than 100 nM.

Turning to `O=C(N[C@@H](CC1CCCCC1)C(=O)NCCN1CCc2cc(F)ccc21)C1CC(=O)N(Cc2ccco2)C1` (stereo partly drawn) [Compound 74, 1-Furan-2-ylmethyl-5-oxo-pyrrolidine-3-carboxylic acid (S)-{2-cyclohexyl-1-[2-(5-fluoro-2,3-dihydro-indol-1-yl)-ethylcarbamoyl]-ethyl}-amide], the Ki is less than 1000 nM.

Consider `C[C@@H](CNc1c(F)cccc1F)NC(=O)[C@H](CC1CCCCC1)NC(=O)c1ccc(-c2cccc(F)c2)o1` [Compound 92, 5-(3-Fluoro-phenyl)-furan-2-carboxylic acid {2-cyclohexyl-1-(S)-[2-(2,6-difluoro-phenylamino)-1-(S)-methyl-ethylcarbamoyl]-ethyl}-amide], for which the Ki was less than 100 nM.

Take `O=C(N[C@@H](CC1CCCCC1)C(=O)NCCN1CCc2cc(F)ccc21)c1ccc(-c2cccc(C(F)(F)F)c2)o1` [Compound 2, 5-(3-Trifluoromethyl-phenyl)-furan-2-carboxylic acid (S)-{2-cyclohexyl-1-[2-(5-fluoro-2,3-dihydro-indol-1-yl)-ethylcarbamoyl]-ethyl}-amide]: the Ki was less than 100 nM.

As to `CC(C)(C)C[C@H](NC(=O)c1ccc(-c2cccc(C(F)(F)F)c2)o1)C(=O)NCCN1CCc2cc(F)ccc21` [Compound 202, N-((S)-1-(2-(5-fluoroindolin-1-yl)ethylcarbamoyl)-3,3-dimethylbutyl)-5-(3-(trifluoromethyl)phenyl)furan-2-carboxamide], the Ki was less than 100 nM.

In the case of `C[C@@H](CNc1ccc(OC(F)(F)F)cc1)NC(=O)[C@H](CC1CCCCC1)NC(=O)O[C@@H]1CCNC1` [Compound 187, {2-Cyclohexyl-1-(S)-[1-(S)-methyl-2-(4-trifluoromethoxy-phenylamino)-ethylcarbamoyl]-ethyl}-carbamic acid pyrrolidin-3-(R)-yl ester], the Ki is less than 10000 nM.

Take `C[C@@H](CN1CC(C)(C)c2cc(F)ccc21)NC(=O)[C@H](CC1CCCCC1)NC(=O)C1CCOCC1` [Compound 173, Tetrahydropyran-4-carboxylic acid {2-cyclohexyl-1-(S)-[2-(5-fluoro-3,3-dimethyl-2,3-dihydro-indol-1-yl)-1-(S)-methyl-ethylcarbamoyl]-ethyl}-amide]: the Ki is less than 100 nM.

For the molecule `CS(=O)(=O)NCc1ccc(C(=O)N[C@@H](CC2CCCCC2)C(=O)NCCN2CCc3cc(F)ccc32)cc1` [Compound 79, N-(S)-{2-cyclohexyl-1-[2-(5-fluoro-2,3-dihydro-indol-1-yl)-ethylcarbamoyl]-ethyl}-4-(methanesulfonylamino-methyl)-benzamide], the Ki was less than 100 nM.

With `C[C@@H](CNc1ccc(OC(F)(F)F)cc1)NC(=O)[C@H](CC1CCCCC1)NC(=O)C1CCOC1` (mixture of isomers) [Compound 272, Tetrahydrofuran-3-(R,S)-carboxylic acid {2-cyclohexyl-1-(S)-[1-(S)-methyl-2-(4-trifluoromethoxy-phenylamino)-ethylcarbamoyl]-ethyl}-amide], the Ki was less than 100 nM.

For `O=C(N[C@@H](CC1CCCCC1)C(=O)NCCN1CCc2cc(F)ccc21)c1ccoc1` [Compound 13, Furan-3-carboxylic acid (S)-{2-cyclohexyl-1-[2-(5-fluoro-2,3-dihydro-indol-1-yl)-ethylcarbamoyl]-ethyl}-amide], the Ki was less than 100 nM.

`C[C@@H](CNc1ccc(OC(F)(F)F)cc1)NC(=O)[C@H](CC1CCCC1)NC(=O)OC1CCOCC1` [Compound 190, (S,S)-{2-Cyclopentyl-1-[1-methyl-2-(4-trifluoromethoxy-phenylamino)-ethylcarbamoyl]-ethyl}-carbamic acid tetrahydropyran-4-yl ester]: the Ki is less than 100 nM.

`Cc1cccc(C(=O)N[C@@H](CC(C)(C)C)C(=O)NCCN2CCc3cc(F)ccc32)c1` [Compound 203, N-((S)-1-(2-(5-fluoroindolin-1-yl)ethylcarbamoyl)-3,3-dimethylbutyl)-3-methylbenzamide]: the Ki was less than 100 nM.

For `O=C(N[C@@H](CC1CCCCC1)C(=O)NCCN1CCc2cc(F)ccc21)C1CC(=O)N(Cc2ccccc2)C1` (stereo partly drawn) [Compound 65, 1-Benzyl-5-oxo-pyrrolidine-3-carboxylic acid (S)-{2-cyclohexyl-1-[2-(5-fluoro-2,3-dihydro-indol-1-yl)-ethylcarbamoyl]-ethyl}-amide], the Ki is less than 1000 nM.

On to `O=C(Nc1ccc(-c2ccccc2)cc1)N[C@@H](CC1CCCCC1)C(=O)NCCN1CCc2cc(F)ccc21` [Compound 225, (S)-2-(3-Biphenyl-4-yl-ureido)-3-cyclohexyl-N-[2-(5-fluoro-2,3-dihydro-indol-1-yl)-ethyl]-propionamide], for which the inhibition constant (Ki) is less than 1000 nM.

As to `O=C(NCCN1CCc2cc(F)ccc21)[C@H](CC1CCCCC1)NS(=O)(=O)c1ccc(Oc2ccc(F)cc2)cc1` [Compound 236, (S)-3-Cyclohexyl-N-[2-(5-fluoro-2,3-dihydro-indol-1-yl)-ethyl]-2-[4-(4-fluoro-phenoxy)-benzenesulfonylamino]-propionamide], the Ki was less than 1000 nM.

`C[C@@H](CN1CC(C)(C)c2cc(F)ccc21)NC(=O)[C@H](CC1CCCCC1)NC(=O)O[C@H]1CCOC1` [Compound 217, (S,S)-{2-Cyclohexyl-1-[2-(5-fluoro-3,3-dimethyl-2,3-dihydro-indol-1-yl)-1-methyl-ethylcarbamoyl]-ethyl}-carbamic acid (S)-tetrahydro-furan-3-yl ester]: the Ki is less than 100 nM.

Turning to `O=C(NCCN1CCc2cc(F)ccc21)[C@H](CC1CCCCC1)NS(=O)(=O)c1ccc(OC(F)F)cc1` [Compound 240, (S)-3-Cyclohexyl-2-(4-difluoromethoxy-benzenesulfonylamino)-N-[2-(5-fluoro-2,3-dihydro-indol-1-yl)-ethyl]-propionamide], the Ki was less than 1000 nM.

For `CSc1ccc(NC[C@H](C)NC(=O)[C@H](CC2CCCCC2)NC(=O)c2ccc(-c3cccc(F)c3)o2)cc1` [Compound 117, 5-(3-Fluoro-phenyl)-furan-2-carboxylic acid {2-cyclohexyl-1-(S)-[1-(S)-methyl-2-(4-methylsulfanyl-phenylamino)-ethylcarbamoyl]-ethyl}-amide], the Ki is less than 100 nM.

For the molecule `C[C@@H](CNc1cccc(S(C)(=O)=O)c1)NC(=O)[C@H](CC1CCCCC1)NC(=O)c1ccc(-c2cccc(F)c2)o1` [Compound 88, 5-(3-Fluoro-phenyl)-furan-2-carboxylic acid {2-cyclohexyl-1-(S)-[2-(3-methanesulfonyl-phenylamino)-1-(S)-methyl-ethylcarbamoyl]-ethyl}-amide], the Ki was less than 100 nM.

Take `COc1ccc(NC[C@H](C)NC(=O)[C@H](CC(C)(C)C)NC(=O)c2ccc(-c3cccc(F)c3)o2)cc1` [Compound 132, 5-(3-Fluoro-phenyl)-furan-2-carboxylic acid {1-(S)-[2-(4-methoxy-phenylamino)-1-(S)-methyl-ethylcarbamoyl]-3,3-dimethyl-butyl}-amide]: the Ki was less than 100 nM.

For the molecule `C[C@@H](CNc1ccc(OC(F)(F)F)cc1)NC(=O)[C@H](CC1CCCCC1)NC(=O)c1cc(-c2cccc(F)c2)no1` [Compound 145, 3-(3-Fluoro-phenyl)-isoxazole-5-carboxylic acid {2-cyclohexyl-1-(S)-[1-(S)-methyl-2-(4-trifluoromethoxy-phenylamino)-ethylcarbamoyl]-ethyl}-amide], the Ki is less than 1000 nM.

With `O=C(N[C@@H](CC1CCCCC1)C(=O)NCCN1CCc2cc(F)ccc21)C1CCN(c2ccc(Cl)nn2)CC1` [Compound 56, 1-(6-Chloro-pyridazin-3-yl)-piperidine-4-carboxylic acid (S)-{2-cyclohexyl-1-[2-(5-fluoro-2,3-dihydro-indol-1-yl)-ethylcarbamoyl]-ethyl}-amide], the inhibitory constant (Ki) is less than 1000 nM.

As for `Cn1cncc1S(=O)(=O)N[C@@H](CC1CCCCC1)C(=O)NCCN1CCc2cc(F)ccc21` [Compound 232, (S)-3-Cyclohexyl-N-[2-(5-fluoro-2,3-dihydro-indol-1-yl)-ethyl]-2-(3-methyl-3H-imidazole-4-sulfonylamino)-propionamide], the Ki is less than 10000 nM.

For the molecule `Cc1cccc(C(=O)NC(C(=O)NCCN2CCc3cc(F)ccc32)c2ccc(Cl)cc2Cl)c1` (racemic) [Compound 213, (R,S)-N-((2-(5-fluoroindolin-1-yl)ethylcarbamoyl)(2,4-dichlorophenyl)methyl)-3-methylbenzamide], the inhibitory constant (Ki) is less than 1000 nM.

Regarding `COc1ccc(CC(=O)N[C@@H](CC2CCCCC2)C(=O)NCCN2CCc3cc(F)ccc32)cc1` [Compound 6, (S)-3-Cyclohexyl-N-[2-(5-fluoro-2,3-dihydro-indol-1-yl)-ethyl]-2-[2-(4-methoxy-phenyl)-acetylamino]-propionamide], the Ki is less than 1000 nM.

In the case of `O=C(N[C@@H](CC1CCCCC1)C(=O)NCCN1CCc2cc(F)ccc21)c1ccc(Oc2ccccc2)cc1` [Compound 4, N-(S)-{2-cyclohexyl-1-[2-(5-fluoro-2,3-dihydro-indol-1-yl)-ethylcarbamoyl]-ethyl}-4-phenoxy-benzamide], the Ki is less than 100 nM.

Regarding `C[C@@H](CN1c2ccc(F)cc2CC1(C)C)NC(=O)[C@H](CC1CCCCC1)NC(=O)[C@H]1CCCO1` [Compound 274, Tetrahydrofuran-2-(R)-carboxylic acid {2-cyclohexyl-1-(S)-[2-(5-fluoro-2,2-dimethyl-2,3-dihydro-indol-1-yl)-1-(S)-methyl-ethylcarbamoyl]-ethyl}-amide], the Ki is less than 1000 nM.

As usually defined, the Ki is the dissociation constant of the complex between target and ligand, obtained from inhibition or displacement.
